Series [1] in a line: Solubility of the compound. It counts as physicochemical.
In series [2] the test system is 3T3-L1. Kind of series: Lipid lowering activity in mouse 3T3L1 cells assessed as decrease in triglyceride level at 10 uM for 6 days by oil red o-staining based microscopic assay. Type of series: functional, cell-based.
Series [3] concerns 3T3-L1. Kind of series: Cytotoxicity against mouse 3T3L1 cells assessed as decrease in cell viability after 24 hrs by MTT assay. Type of series: cell-based. As to conditions: 3T3-L1, 24 h. (In general: Tetrazolium assays rely on reduction of a dye to a coloured formazan, in cell work by metabolically active cells.)
For series [4], the system named is 3T3-L1. Kind of series: Lipid lowering activity in mouse 3T3L1 cells assessed as decrease in triglyceride level at 10 uM for 6 days by oil red o-staining based assay relative to control. It counts as functional. Further details: scale not given: the % may be the effect or the level left.
In series [5] the test system is HepG2. Nature of the series: Lipid lowering activity in human HepG2 cells assessed as decrease in triglyceride level at 10 uM for 6 days in presence of oleic acid by oil red o-staining based assay relative to control. It counts as functional. Further details: scale not given: the % may be the effect or the level left.
The test system of series [6] is HepG2. Kind of series: Cytotoxicity against human HepG2 cells assessed as decrease in cell viability after 24 hrs by MTT assay. As to conditions: HepG2, 24 h. Type of series: cell-based.
The subject of series [7] is 3T3-L1. Nature of the series: Lipid lowering activity in mouse 3T3L1 cells assessed as decrease in triglyceride level at 5 uM by oil red o-staining based assay. Type of series: functional, cell-based. As to conditions: TDE = time-dependent effect.
Series [8] has as its system 3T3-L1. Kind of series: Lipid lowering activity in mouse 3T3L1 cells assessed as decrease in triglyceride level treated 2 days post confluent for 9 days by oil red o-staining based assay. It counts as functional, cell-based.
The species named for series [9] is Mus musculus. Kind of series: Activation of AMPK pathway in mouse 3T3L1 cells assessed as decrease in C/EBPalpha mRNA level at 1 to 10 uM measured on day 3 post treatment by RT-PCR method. It counts as cell-based.
The test system of series [10] is 3T3-L1. Kind of series: Cell cycle arrest in mouse 3T3L1 cells assessed as accumulation at G0/G1 phase at 10 uM after 24 hrs by propidium iodide staining based FACS analysis (reference value: 48.7%). It counts as functional. On the technique in general: In flow cytometry, cells or beads pass a laser one at a time.
The subject of series [11] is 3T3-L1. Nature of the series: Lipid lowering activity in mouse 3T3L1 cells assessed as inhibition of terminal differentiation stage by measuring decrease in triglyceride level at 5 uM treated on day 6 to 9 starting from 2 days post confluent by oil red o-staining based assay relative to control. Type of series: functional.
Series [12] deals with 3T3-L1. Kind of series: Lipid lowering activity in mouse 3T3L1 cells assessed as decrease in triglyceride level at 5 uM treated on day 0 to 9 starting from 2 days post confluent by oil red o-staining based assay relative to control. It counts as functional. Further details: scale not given: the % may be the effect or the level left.
Series [13] is filed under the species Mus musculus. Nature of the series: Activation of AMPK pathway in mouse 3T3L1 cells assessed as reduction in C/EBPbeta protein expression at 5 uM after 4 hrs by Western blot analysis. It counts as cell-based.
The species named for series [14] is Mus musculus. Nature of the series: Activation of AMPK pathway in mouse 3T3L1 cells assessed as decrease in […] mRNA level measured on day 6 post treatment by RT-PCR method. It counts as cell-based.
For series [15], the species on record is Mus musculus. Nature of the series: Activation of AMPK pathway in mouse 3T3L1 cells assessed as reduction in C/EBPdelta protein expression at 2 mM after 4 hrs by Western blot analysis. Type of series: cell-based.
The species entered for series [16] is Mus musculus. Nature of the series: Induction of AMPKalpha phosphorylation at Thr172 residue in mouse 3T3L1 cells at 5 uM after 4 hrs by Western blot analysis. It counts as cell-based. (In general: In western blotting, separated proteins are transferred to a membrane and probed.)
The subject of series [17] is 3T3-L1. Nature of the series: Cytotoxicity against mouse 3T3L1 cells assessed as decrease in cell viability up to 10 uM measured up to 72 hrs by LDH release assay. Type of series: cell-based. The conditions noted are these: 3t3-l1, 72 h.
Series [18] relates to 3T3-L1. Nature of the series: Lipid lowering activity in mouse 3T3L1 cells assessed as decrease in triglyceride level at 5 uM treated on day 0 to 6 starting from 2 days post confluent by oil red o-staining based assay relative to control. It counts as functional. Also on record: scale not given: the % may be the effect or the level left.
The species named for series [19] is Mus musculus. Kind of series: Activation of AMPK pathway in mouse 3T3L1 cells assessed as decrease in PPARgamma mRNA level at 1 to 10 uM measured on day 3 post treatment by RT-PCR method. It counts as cell-based.
The species entered for series [20] is Mus musculus. Kind of series: Activation of AMPK pathway in mouse 3T3L1 cells assessed as induction of […] phosphorylation at Ser79 residue measured on day 6 post treatment by Western blot analysis. Type of series: cell-based.
For series [21], the species on record is Mus musculus. Nature of the series: Activation of AMPK pathway in mouse 3T3L1 cells assessed as reduction in C/EBPbeta protein expression at 2 mM after 4 hrs by Western blot analysis. Type of series: cell-based.
Series [22] is filed under the species Mus musculus. Kind of series: Activation of AMPK pathway in mouse 3T3L1 cells assessed as reduction in C/EBPdelta protein expression at 5 uM after 4 hrs by Western blot analysis. Type of series: cell-based.
The species named for series [23] is Mus musculus. Nature of the series: Activation of AMPK pathway in mouse 3T3L1 cells assessed as decrease in SREBP-1c mRNA level at 1 to 10 uM measured on day 6 post treatment by RT-PCR method. Type of series: cell-based.
In series [24] the test system is 3T3-L1. Kind of series: Lipid lowering activity in mouse 3T3L1 cells assessed as inhibition of adipogenesis by measuring decrease in triglyceride level at 5 uM treated on day 0 to 3 starting from 2 days post confluent by oil red o-staining based assay relative to control. Type of series: functional.
The test system of series [25] is 3T3-L1. Nature of the series: Cell cycle arrest in mouse 3T3L1 cells assessed as accumulation at G0/G1 phase at 5 uM after 24 hrs by propidium iodide staining based FACS analysis (reference value: 48.7%). Type of series: functional.
The test system of series [26] is 3T3-L1. Kind of series: Lipid lowering activity in mouse 3T3L1 cells assessed as inhibition of lipogenesis by measuring decrease in triglyceride level at 5 uM treated on day 3 to 6 starting from 2 days post confluent by oil red o-staining based assay relative to control. It counts as functional.
The species entered for series [27] is Mus musculus. Kind of series: Activation of AMPK pathway in mouse 3T3L1 cells assessed as decrease in C/EBPgamma mRNA level measured after 24 hrs by RT-PCR method. Type of series: cell-based.
Series [28] is filed under the species Mus musculus. Nature of the series: Activation of AMPK pathway in mouse 3T3L1 cells assessed as decrease in SCD1 mRNA level measured on day 6 post treatment by RT-PCR method. It counts as cell-based.
Series [29] has as its system 3T3-L1. Kind of series: Cell cycle arrest in mouse 3T3L1 cells assessed as decrease in S-phase at 1 to 10 uM after 24 hrs by propidium iodide staining based FACS analysis. Type of series: functional.
The subject of series [30] is 3T3-L1. Kind of series: Inhibition of cell proliferation in mouse 3T3L1 cells assessed as reduction in adipogenic cocktail-induced mitotic cell clonal expansion at 1 to 10 uM after 72 hrs by hemocytometric method. It counts as functional, cell-based.
For series [31], the species on record is Mus musculus. Nature of the series: Induction of AMPKalpha phosphorylation at Thr172 residue in mouse 3T3L1 cells measured on day 3 post treatment by Western blot analysis. It counts as cell-based.
Series [32] deals with 3T3-L1. Kind of series: Cell cycle arrest in mouse 3T3L1 cells assessed as accumulation at G0/G1 phase at 1 uM after 24 hrs by propidium iodide staining based FACS analysis (reference value: 48.7%). Type of series: functional.
Series [33] is filed under the species Mus musculus. Kind of series: Activation of AMPK pathway in mouse 3T3L1 cells assessed as decrease in C/EBPbeta mRNA level measured after 24 hrs by RT-PCR method. Type of series: cell-based.
The species named for series [34] is Mus musculus. Nature of the series: Activation of AMPK pathway in mouse 3T3L1 cells assessed as decrease in FAS mRNA level measured on day 6 post treatment by RT-PCR method. Type of series: cell-based.

Activity calls are given as the source filed them. No cut-off for these calls is given here.

What is called IC50 is the concentration that gives 50% inhibition. With `O=Cc1c(-c2nc3ccccc3c(=O)[nH]2)[nH]c2ccccc12`, in [1], the solubility entry is given as “Insoluble”. Moreover, in the series on 3T3-L1 [2], the result was Active. Further, the half-inhibitory concentration (IC50) in the series with 3T3-L1 [3] and with HepG2 [6] was more than 50 µM in each case. In addition, the Activity stood at 20.1% with 3T3-L1 [4] and 24.1% with HepG2 [5].

In general, EC50 refers to the concentration at which the effect is half-maximal. The term inhibition denotes the change of the read-out against control, counted positive when it falls. Take `Fc1c(-c2nc(NCCCN3CCCC3)c3ccccc3n2)[nH]c2ccccc12`: the Activity entry with 3T3-L1 [7] was “Tde”; with 3T3-L1 [8], “Dose-dependent effect”; in the series with 3T3-L1 [10], 77.6%; with 3T3-L1 [12] it was 80.5%; in the series listed under Mus musculus [14], “Dose-dependent effect”; with 3T3-L1 [17], “Non-Toxic”. Further, the Activity in the series with 3T3-L1 [18] is 74.2%; with 3T3-L1 [4], 79.1%; with 3T3-L1 [25], 66.1%; in the series filed under Mus musculus [27], “Dose-dependent effect”; with HepG2 [5], 20.8%; in the series filed under Mus musculus [28], “Dose-dependent effect”. Besides, the Activity in the series with 3T3-L1 [32] is 60.8%; in the series listed under Mus musculus [33] it was “Dose-dependent effect”; in the series listed under Mus musculus [34], “Dose-dependent effect”. Besides, in the series on 3T3-L1 [8], the EC50 turned out to be 0.24 µM. In addition, the outcome in the series listed under Mus musculus [9], in the series with 3T3-L1 [2], in the series listed under Mus musculus [13], in the series filed under Mus musculus [15], in the series filed under Mus musculus [16] and in the series listed under Mus musculus [19] was Active. Also, the result in the series filed under Mus musculus [20], in the series filed under Mus musculus [21], in the series listed under Mus musculus [22], in the series listed under Mus musculus [23], with 3T3-L1 [29] and in the series filed under Mus musculus [31] was Active. For the same molecule, the inhibition at 5 µM in the series with 3T3-L1 [11] was 22.1%; in the series with 3T3-L1 [24] it was 71.1%; in the series on 3T3-L1 [26] it was 51.6%. Further, the figures for the IC50 with 3T3-L1 [3] and with HepG2 [6] were 37.7 µM and 25.1 µM, respectively. Moreover, the inhibition result in the series on 3T3-L1 [30] is “Active”.
